Assay results as given in patent US10314883B2, “Compositions and methods for regulating blood pressure” (University of Virginia Patent Foundation, priority 2015, dated 2019).
Like-named read-outs stand apart in the source and are kept apart here.

Assays:
[1] = tested on: abdominal aortic rings; assay: Wire myography of abdominal aortic rings; format: cell-based, mouse; conditions: for EC50: Mus musculus, read-out: EC50 of phenylephrine, aortic ring contraction
[2] = tested on: thoracodorsal arteries (TDA)
[3] = tested on: thoracodorsal arteries (TDA); assay: Pressure myography of TDAs electroporated with Panx1 WT or YLK>AAA plasmid; format: cell-based, mouse; conditions: for EC50: Mus musculus, read-out: EC50 of phenylephrine-induced constriction
Method: (§1) The contractile responses of pressurized thoracodorsal arteries (TDA) were measured as previously described. Briefly, TDA were isolated and placed in cold Krebs-HEPES until cannulation in a pressure arteriograph (Danish MyoTechnology). After a 30 minute equilibration period, cumulative concentrations of contractile agonists were applied to the TDA pressurized at 80 mmHg, and the vessel was visualized with an Olympus IX-71 microscope attached to a Hamamatsu EM-CCD camera coupled to Slidebook imaging software. […] Lastly, maximal diameter was measured at the end of each experiment in calcium-free Krebs-HEPES supplemented with EGTA (1 mmol/L) and sodium nitroprusside (10 μmol/L). In cases where the vessels were not constricting to the contractile agonist, their viability was assessed by applying 40 mM KCl and only TDA reaching 30% of the maximal diameter were considered for analysis. The contractile responses, as well as the basal tone, are expressed as a percentage of the maximal diameter.
Vessel transfection was performed as previously described by us. Briefly, after isolation, TDA were placed in cold, sterile RPMI supplemented with penicillin […] (Gibco), CaCl2 (2 mmol/L) and 1% BSA. Vessels were transferred to a cuvette containing 100 μL of Nucleofector solution (Lonza) containing 5 μg of plasmid, and subjected to electroporation. Arteries were then placed in supplemented RPMI media in an incubator for 14 to 18 hours until cannulation in the pressure arteriograph as described above.
We further tested the importance of the YLK sequence within the intracellular loop of Panx1 on phenylephrine-induced vasoconstriction using rescue experiments with intact arteries from mice lacking endogenous Panx1. We reintroduced Panx1 into the SMCs of TDAs from Cre^+/Panx1^F1 mice that had received tamoxifen by selectively transfecting these cells with a plasmid encoding Panx1^WT.

[4] = tested on: C57Bl/6 mice; assay: Blood pressure by radiotelemetry after peptide injection; format: in vivo, mouse; conditions: conscious C57Bl/6 mice, acute intraperitoneal injection, within 1.5 hours; 5 mg/kg or 20 mg/kg
Method: Blood pressure was measured using radiotelemetry units (Data Sciences International, DSI) implanted in C57Bl/6, Cre^−/Panx1^F1, Cre^−/Panx1^WT, Cre^+/Panx1^WT, and Cre^+/Panx1^F1 mice. The catheter of a radiotelemetry unit (TA11PA-C10, DSI) was implanted in the mouse left carotid artery under isoflurane anesthesia, and the catheter was tunneled trough the radiotransmitter placed in a subcutaneous pouch along the right flank of the mouse, as previously described. After implantation, mice were allowed to recover for seven days.
[…] Blood pressure was recorded for another 1.5 hours, and the mean arterial pressure data from 1 to 1.5 hours post injection was averaged and compared to the basal blood pressure. The ΔMAP was calculated by subtracting the average mean arterial pressure measured for 30 minutes prior to injection to the mean arterial pressure measured for 30 minutes one hour post injection. […]
Based on the central role of α1AR signaling in blood pressure homeostasis, we evaluated the effect of Panx1 deletion on systemic blood pressure. Blood pressure was measured using radiotelemetry units as previously described by us. Blood pressure was measured on the conditional KO mouse model for five days before proceeding to tamoxifen injections, and for another five days 24 hours after the last tamoxifen injection. […]

[5] = tested on: thoracodorsal arteries (TDA); assay: Pressure myography: agonist-induced constriction of pressurized TDAs from C57Bl/6 mice with pannexin inhibitors or Panx1 mimetic peptides; format: cell-based, mouse; conditions: for effect on phenylephrine-induced constriction of pressurized TDAs: TAT-linked peptides
Method: as §1
Using pressure arteriography on TDA dissected from C57Bl/6 mice (as described; and aortic ring contraction, as described), we measured the effect of pannexin inhibitors, probenecid and 10Panx1, on the contractile response upon stimulation with different vasoconstrictors: phenylephrine (FIG. 1A), noradrenaline (also called norepinephrine) (FIG. 1B), serotonin (also known as 5-HT) (FIG. 1C) and endothelin-1 (FIG. 1D). […] In contrast, ^10Panx1 and probenecid had no effect on contraction of TDA measured in response to cumulative concentrations of serotonin or endothelin-1 (FIGS. 1C-D; Table 1).
To determine the region of Panx1 necessary for channel activation in response to α1AR stimulation, we produced short peptides derived from the intracellular regions of the Panx1 channel. We generated two peptides mimicking unique mouse Panx1 (mPanx1) sequences in the first intracellular loop (IL1 and IL2) and two peptides mimicking unique mPanx1 sequences in the C-terminal region, one in second intracellular loop (CT1) and one in the C-terminal tail (CT2) (FIG. 4A scissors indicate caspase 3 cleavage site; Table 3). All peptides also contained a TAT sequence to facilitate entry into cells and we verified the intracellular localization of each peptide by immunofluorescence detection of the TAT sequence in TDAs pre-incubated with each peptide (FIG. 7A). We tested the effect of each peptide on phenylephrine-induced contractile responses in pressurized TDAs from C57Bl/6 mice (FIGS. 4B-E). […] Note that these differences in effects of phenylephrine were similar in magnitude to those observed in arteries from SMC-specific Panx1-knockout mice and littermate controls (FIG. 2C, Table 2).

[6] = tested on: resistance arterioles; assay: Diameter of resistance arterioles isolated from adipose tissue of hypertensive subjects; format: cell-based, human; conditions: arterioles from treatment resistant hypertension patients
Source text: The resistance arterioles were isolated from adipose tissue. Treatment resistant hypertension: >3 continue to have high blood pressure.

[7] = aortic rings from Cre^+/Panx1^FL with tamoxifen
[8] = aortic rings from Cre^+/Panx1^FL, peanut oil
[9] = TDAs from Cre^+/Panx1^FL with tamoxifen + Panx1^WT
[10] = TDAs from Cre^+/Panx1^FL with tamoxifen + Panx1^YLK>AAA
[11] = TDAs from Cre^+/Panx1^FL with tamoxifen, electroporated without plasmid
[12] = TDAs from Cre^+/Panx1^FL, no tamoxifen, electroporated without plasmid
[13] = in presence of the named peptide

**Q.** For `CNC[C@H](O)c1cccc(O)c1` [Phenylephrine, phenylephrine], which EC50 [1, 7] is on record?
**A.** 3.2 ± 0.32 µM

**Q.** What about the EC50 [1, 8] of the same molecule?
**A.** 3.39 ± 0.38 µM

**Q.** And the “EMAX of phenylephrine, aortic ring contraction” value [1, 7]?
**A.** 343.4 ± 69.4 percentage of constriction to KCl

**Q.** What about the “EMAX of phenylephrine, aortic ring contraction” value [1, 8] of the same molecule?
**A.** 368.8 ± 78.7 percentage of constriction to KCl

**Q.** And the “EMAX of agonist for TDA constriction” value ([2]; TDAs from Cre^+/Panx1^FL mice, tamoxifen-injected (SMC Panx1 knockout))?
**A.** 69.1 ± 3.06 percentage of maximal diameter

**Q.** What about the “EMAX of agonist for TDA constriction” value ([2]; TDAs from Cre^+/Panx1^FL mice, tamoxifen-injected (SMC Panx1 knockout), listed as phenylephrine) of the same molecule?
**A.** 69.1±3.06 percentage of maximal diameter

**Q.** And the “EMAX of agonist for TDA constriction” value ([2]; TDAs from Cre^+/Panx1^WT mice, tamoxifen-injected)?
**A.** 53.5 ± 4.91 percentage of maximal diameter

**Q.** And the “EMAX of agonist for TDA constriction” value ([2]; TDAs from Cre^−/Panx1^FL mice, tamoxifen-injected)?
**A.** 46.3 ± 5.94 percentage of maximal diameter

**Q.** What about the “EMAX of agonist for TDA constriction” value ([2]; TDAs from Cre^−/Panx1^WT mice, tamoxifen-injected) of the same molecule?
**A.** 51.8 ± 2.66 percentage of maximal diameter

**Q.** And the “EMAX of agonist for TDA constriction” value ([2]; TDAs isolated from the three control genotypes)?
**A.** approximately 50 % of maximal diameter

**Q.** And the EC50 [3, 9]?
**A.** 0.45 ± 0.33 µM

**Q.** And the EC50 [3, 10]?
**A.** 0.63 ± 0.53 µM

**Q.** And the EC50 [3, 11]?
**A.** 1.13 ± 0.77 µM

**Q.** And the EC50 [3, 12]?
**A.** 0.64 ± 0.23 µM

**Q.** What about the “EMAX of phenylephrine-induced constriction” value [3, 9] of the same molecule?
**A.** 34.2 ± 6.15 percentage of maximal diameter

**Q.** And the “EMAX of phenylephrine-induced constriction” value [3, 10]?
**A.** 56.9 ± 5.84 percentage of maximal diameter

**Q.** And the “EMAX of phenylephrine-induced constriction” value [3, 11]?
**A.** 57.5 ± 9.20 percentage of maximal diameter

**Q.** And the “EMAX of phenylephrine-induced constriction” value [3, 12]?
**A.** 32.9 ± 4.85 percentage of maximal diameter

**Q.** How did the “reduction of mean arterial blood pressure” value [4] turn out when KYPIVEQYLKYGRKKQRRR [IL2] was run?
**A.** 13.0±3.3 mmHg

**Q.** And the “effect on noradrenaline-induced constriction” value ([5]; C57Bl/6 TDAs)?
**A.** inhibited

**Q.** And the “effect on phenylephrine-induced constriction of pressurized TDAs” value ([5]; C57Bl/6 TDAs)?
**A.** significantly decreased

**Q.** What about the “EMAX of endothelin-1 for TDA constriction” value [5, 13] of the same molecule?
**A.** 41.9 ± 3.73 percentage of maximal diameter

**Q.** What about the “EMAX of noradrenaline for TDA constriction” value [5, 13] of the same molecule?
**A.** 53.4 ± 7.00 percentage of maximal diameter

**Q.** What about the “EMAX of phenylephrine for TDA constriction” value [5, 13] of the same molecule?
**A.** 68.6 ± 5.11 percentage of maximal diameter

**Q.** And the “EMAX of serotonin for TDA constriction” value [5, 13]?
**A.** 36.7 ± 3.52 percentage of maximal diameter

**Q.** And the “effect on hyperconstriction of resistance arterioles” value [6]?
**A.** significantly reduces hyperconstriction

**Q.** How did the “reduction of mean arterial blood pressure” value [4] turn out when “scrambled intracellular loop 2 IYLYVEQKPY (SEQ ID NO: 7) linked with a TAT sequence [Scrambled IL2]” was run?
**A.** no significant effect

**Q.** What about the “effect on phenylephrine-induced constriction of pressurized TDAs” value ([5]; C57Bl/6 TDAs) of the same molecule?
**A.** no significant effect

**Q.** What about the “EMAX of phenylephrine for TDA constriction” value [5, 13] of the same molecule?
**A.** 47.5 ± 2.17 percentage of maximal diameter
